For test [1], the target named is T1, Cbl-b (Homo sapiens, UniProt Q13191). In words: Cbl-b inhibition assay (Cbl-b activity assay, FRET, Biological Example 1; 100 mM NaCl, 60 nM Src kinase). It is filed as biochemical. Particulars: upper bound stated in text lists; read-out: IC50 values in the Cbl-b inhibition assay of Biological Example 1. The method, boiled down:
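Steps: Src kinase phosphorylates N-terminal biotinylated Avi-tagged Cbl-b; phosphorylated Cbl-b binds Bodipy-fluorescein ubiquitin-loaded UbcH5B; streptavidin-terbium on Cbl-b sits close to the fluorescein label, producing FRET. Inhibitors block UbcH5B-Ub binding.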

The subject of test [2] is T-cell. In words: IL-2 secretion from T-cells co-stimulated with anti-CD3 and anti-CD28 antibody (Biological Example 2). It is filed as cell-based, human. Particulars: Homo sapiens, T-cell, fold change over baseline (anti-CD3/anti-CD28 stimulated T-cells without inhibitor), read-out: IL-2 secretion Anti-CD3/Anti-CD28 stimulation; for fold induction at 0.3 µM: 0.3 μM Cbl-b inhibitor; for fold induction at 1 µM: 1 μM Cbl-b inhibitor. Summed up:
(§1)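 No assay protocol given; T-cells stimulated with anti-CD3 alone or anti-CD3 plus anti-CD28, with or without Cbl-b inhibitor. Activation read as IL-2 secretion or CD25 surface staining, expressed as fold over baseline from uninhibited cells […].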

The test system of test [3] is T-cell. Nature of the test: IL-2 secretion from T-cells stimulated with anti-CD3 antibody alone (Biological Example 2). It is filed as cell-based, human. Particulars: Homo sapiens, T-cell; 1 μM Cbl-b inhibitor; fold change over baseline (anti-CD3/anti-CD28 stimulated T-cells without inhibitor); read-out: IL-2 secretion Anti-CD3 stimulation.
For test [4], the system named is T-cell. Nature of the test: CD25 cell surface staining on T-cells co-stimulated with anti-CD3 and anti-CD28 antibody (Biological Example 2). The format is cell-based, human. Particulars: Homo sapiens, T-cell, fold change over baseline (anti-CD3/anti-CD28 stimulated T-cells without inhibitor), read-out: CD25 staining Anti-CD3/Anti-CD28 stimulation; for fold induction at 0.3 µM: 0.3 μM Cbl-b inhibitor; for fold induction at 1 µM: 1 μM Cbl-b inhibitor. Summed up: as §1

In test [5] the test system is T-cell. In words: CD25 cell surface staining on T-cells stimulated with anti-CD3 antibody alone (Biological Example 2). The format is cell-based, human. The settings on record: Homo sapiens, T-cell; 1 μM Cbl-b inhibitor; fold change over baseline (anti-CD3/anti-CD28 stimulated T-cells without inhibitor); read-out: CD25 staining Anti-CD3 stimulation.
Test [6] addresses T1, Cbl-b. Nature of the test: Cbl-b activity assay (Cbl-b inhibition assay), TR-FRET of Cbl-b interaction with UbcH5B-Ub. It is filed as biochemical. Particulars: assay buffer with 100 mM NaCl, 60 nM Src kinase; read-out: Cbl-b activity IC50. The method, boiled down:
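TR-FRET readout of Cbl-b binding to Bodipy-fluorescein N-terminally labeled Ub conjugated to UbcH5B C85K, measured with compound present. After compound incubation, 60 nM Src kinase with 1 mM ATP and 5 mM MgCl2 (final) was added for 1.5 h, then a further 1 h incubation; asterisked values used 50 mM NaCl buffer and 30 nM Src.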
For orientation: TR-FRET usually uses a lanthanide donor and a delayed reading to cut background.

The structures appear in SMILES notation. pIC50: −log10 of the molar value.

T1 sequence (Q13191 36-427): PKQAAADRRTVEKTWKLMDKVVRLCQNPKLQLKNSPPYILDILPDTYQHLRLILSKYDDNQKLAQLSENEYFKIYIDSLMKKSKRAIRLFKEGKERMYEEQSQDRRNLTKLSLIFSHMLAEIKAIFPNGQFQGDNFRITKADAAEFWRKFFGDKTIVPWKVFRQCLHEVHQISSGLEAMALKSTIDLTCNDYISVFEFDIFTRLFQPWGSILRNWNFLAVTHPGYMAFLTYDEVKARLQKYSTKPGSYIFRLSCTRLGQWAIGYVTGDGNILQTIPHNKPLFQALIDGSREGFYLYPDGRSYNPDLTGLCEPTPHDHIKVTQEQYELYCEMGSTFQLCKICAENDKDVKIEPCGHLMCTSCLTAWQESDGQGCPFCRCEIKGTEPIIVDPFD

Regarding `C[C@H](Cc1nncn1C)c1cc(C2CCOCC2)nc(N2Cc3c(cccc3C(F)(F)F)C2=O)c1` [Example 686, (R)-2-(4-(1-(4-methyl-4H-1,2,4-triazol-3-yl)propan-2-yl)-6-(tetrahydro-2H-pyran-4-yl)pyridin-2-yl)-4-(trifluoromethyl)isoindolin-1-one], the negative-log IC50 (pIC50) (usually −log10 of the IC50, conventionally taken in molar units) on Cbl-b [1] is at least 6.00; at Cbl-b [6], 6.00 to 6.52. For the same compound, the figures for the fold induction at 0.3 µM with T-cell [2] and in the test with T-cell [4] were 1.01 to 2.5 and 1.01 to 1.3, respectively. The fold induction at 1 µM in the test with T-cell [2] was 1.01 to 2.5; with T-cell [3], below 0.05; in the test with T-cell [4] it was 1.01 to 1.3; in the test on T-cell [5], below 0.6.
As for `C[C@H](Cc1nncn1C)c1cc(N[C@@H]2CC[C@@H]2O)nc(N2Cc3c(cccc3C(F)(F)F)C2=O)c1` [Example 689a, 2-(6-(((1R,2S)-2-hydroxycyclobutyl)amino)-4-((R)-1-(4-methyl-4H-1,2,4-triazol-3-yl)propan-2-yl)pyridin-2-yl)-4-(trifluoromethyl)isoindolin-1-one], the pIC50 was at least 6.00 on Cbl-b [1] and 6.00 to 6.52 on Cbl-b [6]. In addition, the fold induction at 0.3 µM with T-cell [2] lay within 1.01 to 2.5; with T-cell [4], 1.01 to 1.3. The fold induction at 1 µM in the test with T-cell [2] is 1.01 to 2.5; in the test on T-cell [3], below 0.05; in the test on T-cell [4] it was 1.01 to 1.3; with T-cell [5], 0.601 to 0.8.
`C[C@H](Cc1nncn1C)c1cc(N[C@H]2CC[C@H]2O)nc(N2Cc3c(cccc3C(F)(F)F)C2=O)c1` [Example 689b, 2-(6-(((1S,2R)-2-hydroxycyclobutyl)amino)-4-((R)-1-(4-methyl-4H-1,2,4-triazol-3-yl)propan-2-yl)pyridin-2-yl)-4-(trifluoromethyl)isoindolin-1-one]: the pIC50 was at least 6.00 on Cbl-b [1] and 6.00 to 6.52 at Cbl-b [6]. The fold induction at 0.3 µM lay in the range of 1.01 to 2.5 in the test with T-cell [2] and 1.01 to 1.3 with T-cell [4]. Moreover, the fold induction at 1 µM in the test on T-cell [2] is 1.01 to 2.5; with T-cell [3], below 0.05; in the test with T-cell [4], 1.01 to 1.3; in the test on T-cell [5] it was below 0.6.
On to `CCOc1cc(NC(=O)c2cc(C)nc(C3CC3)n2)cc(C2(Cc3nncn3C)COC2)c1` [Example 690, 2-cyclopropyl-N-(3-ethoxy-5-(3-((4-methyl-4H-1,2,4-triazol-3-yl)methyl)oxetan-3-yl)phenyl)-6-methylpyrimidine-4-carboxamide], for which the pIC50 at Cbl-b [1] was at least 7.00; at Cbl-b [6], above 7.00. The results for the fold induction at 0.3 µM with T-cell [2] and with T-cell [4] were 2.51 to 5 and 1.01 to 1.3, respectively. Also, the fold induction at 1 µM lay in the range of 5 to 7.5 in the test on T-cell [2], 0.051 to 0.1 in the test on T-cell [3], 1.01 to 1.3 with T-cell [4] and 0.801 to 1 in the test on T-cell [5].
On to `CCOc1cc(N2Cc3c(cc([C@@H](C)N4CC[C@H](F)C4)cc3C(F)(F)F)C2=O)cc(C2(Cc3nncn3C)COC2)c1` [Example 691a, 2-(3-ethoxy-5-(3-((4-methyl-4H-1,2,4-triazol-3-yl)methyl)-oxetan-3-yl)phenyl)-6-((R)-1-((S)-3-fluoropyrrolidin-1-yl)ethyl)-4-(trifluoromethyl)-isoindolin-1-one], for which the negative-log IC50 (pIC50) was at least 7.00 on Cbl-b [1] and above 7.00 on Cbl-b [6]. The fold induction at 0.3 µM is above 7.5 in the test with T-cell [2] and 1.31 to 1.5 in the test with T-cell [4]. Moreover, the fold induction at 1 µM was above 7.5 in the test on T-cell [2], above 0.201 in the test with T-cell [3], 1.51 to 1.75 in the test with T-cell [4] and above 1 in the test on T-cell [5].
For the compound `CCOc1cc(N2Cc3c(cc([C@H](C)N4CC[C@H](F)C4)cc3C(F)(F)F)C2=O)cc(C2(Cc3nncn3C)COC2)c1` [Example 691b, 2-(3-ethoxy-5-(3-((4-methyl-4H-1,2,4-triazol-3-yl)methyl)oxetan-3-yl)phenyl)-6-((S)-1-((S)-3-fluoropyrrolidin-1-yl)ethyl)-4-(trifluoromethyl)isoindolin-1-one], the figures for the pIC50 at Cbl-b [1] and at Cbl-b [6] were at least 7.00 and above 7.00, respectively. Moreover, the fold induction at 0.3 µM fell in the range of 2.51 to 5 with T-cell [2] and 1.31 to 1.5 with T-cell [4]. Moreover, the fold induction at 1 µM was above 7.5 in the test on T-cell [2], 0.151 to 0.2 with T-cell [3], 1.51 to 1.75 with T-cell [4] and above 1 with T-cell [5].
For the compound `Cc1cc2c(c(C3CC3)n1)CN(c1cccc(C3(Cc4nncn4C)COC3)c1)C2=O` [Example 692, 4-cyclopropyl-6-methyl-2-(3-(3-((4-methyl-4H-1,2,4-triazol-3-yl)methyl)oxetan-3-yl)phenyl)-2,3-dihydro-1H-pyrrolo[3,4-c]pyridin-1-one], the pIC50 is at least 7.00 on Cbl-b [1] and above 7.00 on Cbl-b [6]. Also, the fold induction at 0.3 µM with T-cell [2] was in the range of 1.01 to 2.5; in the test on T-cell [4], 1.01 to 1.3. Further, the fold induction at 1 µM in the test with T-cell [2] lay within 2.51 to 5; with T-cell [3], 0.051 to 0.1; in the test on T-cell [4], 1.31 to 1.5; with T-cell [5] it was 0.801 to 1.
Consider `Cn1cnnc1CC1(c2cccc(N3Cc4c(cc(CN5CCCC(F)(F)C5)cc4C(F)(F)F)C3=O)c2)COC1` [Example 693, 6-((3,3-difluoropiperidin-1-yl)methyl)-2-(3-(3-((4-methyl-4H-1,2,4-triazol-3-yl)methyl)oxetan-3-yl)phenyl)-4-(trifluoromethyl)isoindolin-1-one], for which the pIC50 on Cbl-b [1] was at least 7.00; at Cbl-b [6], above 7.00. Moreover, the fold induction at 0.3 µM in the test on T-cell [2] is above 7.5; with T-cell [4] it was 1.51 to 1.75. Besides, the fold induction at 1 µM was above 7.5 in the test on T-cell [2], above 0.201 in the test with T-cell [3], 1.51 to 1.75 with T-cell [4] and above 1 in the test on T-cell [5].
Turning to `Cc1cc(C(=O)Nc2cccc(C3(Cc4nncn4C)CCC3)c2)nc(C2CC2)n1` [Example 694, 2-cyclopropyl-6-methyl-N-(3-(1-((4-methyl-4H-1,2,4-triazol-3-yl)methyl)cyclobutyl)phenyl)pyrimidine-4-carboxamide], the pIC50 on Cbl-b [1] is at least 7.00; at Cbl-b [6] it was above 7.00. The values for the fold induction at 0.3 µM in the test on T-cell [2] and in the test on T-cell [4] were above 7.5 and 1.31 to 1.5, respectively. The fold induction at 1 µM is above 7.5 with T-cell [2], 0.051 to 0.1 in the test with T-cell [3], 1.31 to 1.5 in the test with T-cell [4] and above 1 with T-cell [5].
Turning to `Cn1cnnc1CC1(c2cccc(N3Cc4c(cc(CN5CCC6(CC6)C5)cc4C(F)(F)F)C3=O)c2)CCC1` [Example 695, 6-((5-azaspiro[2.4]heptan-5-yl)methyl)-2-(3-(1-((4-methyl-4H-1,2,4-triazol-3-yl)methyl)cyclobutyl)phenyl)-4-(trifluoromethyl)isoindolin-1-one], the pIC50 at Cbl-b [1] was at least 7.00; at Cbl-b [6], above 7.00. Besides, the fold induction at 0.3 µM is above 7.5 in the test on T-cell [2] and 1.31 to 1.5 in the test with T-cell [4]. Also, the fold induction at 1 µM with T-cell [2] is above 7.5; with T-cell [3], above 0.201; in the test with T-cell [4], 1.31 to 1.5; in the test with T-cell [5], above 1.
As for `Cn1cnnc1CC1(c2cccc(N3Cc4c(ccnc4C(F)(F)F)C3=O)c2)COC1` [Example 696, 2-(3-(3-((4-methyl-4H-1,2,4-triazol-3-yl)methyl)oxetan-3-yl)phenyl)-4-(trifluoromethyl)-2,3-dihydro-1H-pyrrolo[3,4-c]pyridin-1-one], the values for the pIC50 at Cbl-b [1] and at Cbl-b [6] were at least 7.00 and above 7.00, respectively. The fold induction at 0.3 µM fell in the range of 1.01 to 2.5 in the test on T-cell [2] and 1.01 to 1.3 with T-cell [4]. The fold induction at 1 µM is 1.01 to 2.5 in the test with T-cell [2], below 0.05 in the test with T-cell [3], 1.01 to 1.3 in the test with T-cell [4] and 0.601 to 0.8 with T-cell [5].
As for `Cn1cnnc1CC1(c2cccc(N3Cc4c(cc(C(O)c5ccccc5)cc4C(F)(F)F)C3=O)c2)COC1` (stereo not drawn) [Example 697, 6-(hydroxy(phenyl)methyl)-2-(3-(3-((4-methyl-4H-1,2,4-triazol-3-yl)methyl)oxetan-3-yl)phenyl)-4-(trifluoromethyl)isoindolin-1-one], the pIC50 was at least 7.00 at Cbl-b [1] and above 7.00 on Cbl-b [6]. Further, the fold induction at 0.3 µM in the test with T-cell [2] fell in the range of 5 to 7.5; in the test with T-cell [4], 1.31 to 1.5. The fold induction at 1 µM in the test with T-cell [2] is above 7.5; in the test on T-cell [3], above 0.201; in the test with T-cell [4], 1.31 to 1.5; with T-cell [5], above 1.
